Data from paper PMC6332093, “Development of Radiolabeled Membrane Type-1 Matrix Metalloproteinase Activatable Cell Penetrating Peptide Imaging Probes” (Molecules, 2015).

Target: MT1-MMP (Homo sapiens, UniProt P50281)
Test: MT1-MMP sensitivity of ACPP probes (LC-MS)
Format: biochemical
Settings: peptide 0.1 mM, MT1-MMP 0.13 µM (method section: 15 nM), 60 min, 37 °C, 50 mM Tris, 200 mM NaCl, 10 mM CaCl2, 10 µM ZnCl2, pH 7.5, LC-MS; cleavage between Asn and Leu
Method: The peptides ACPP-A, ACPP-B, and ACPP-C (without SHPP functionality) were screened for MT1-MMP sensitivity by incubating the peptides (0.1 mM) with MT1-MMP (0.13 µM) for 60 min. For ACPP-A, a small fraction (<5%) of the peptide was cleaved between the asparagine and leucine residue (Figure 3A). […] ACPP-A analogs (a peptide probe lacking the 5-amino-3-oxapentanoic acid linker residues and its linear analog) were also synthesized and tested for MT1-MMP sensitivity, showing also a low degree of activation (Figure S2). Accordingly, a recent study found a poor response of a genetically encoded MT1-MMP biosensor employing the same substrate. […] Therefore, further in-depth analysis of the MT1-MMP specificity and in vivo characteristics of ACPP-A was not performed.
Figure 3 LC-MS characterization of ACPP-A, ACPP-B, and ACPP-C (0.1 mM) incubated with MT1-MMP (0.13 µM) for 60 min. The left and right graphs show the UV absorbance chromatogram and the mass spectra of the UV-peaks bracketed by the arrowheads, respectively. […]
ACPP-A, ACPP-B, and ACPP-C (0.1 mM) were incubated with 15 nM MT1-MMP in a mixture of 50 mM Tris, 200 mM NaCl, 10 mM CaCl2 and 10 µM ZnCl2 at pH 7.5 at 700 rpm and 37 °C. After 1 h, the enzyme was quenched by the addition of TFA (10% v/v), and the reaction mixture was analyzed by LC-MS.

`CC(=O)N[C@H](Cc1ccc(O)cc1)C(=O)N[C@H](CCC(=O)O)C(=O)N[C@H](CCC(=O)O)C(=O)N[C@H](CCC(=O)O)C(=O)N[C@H](CCC(=O)O)C(=O)N[C@H](CCC(=O)O)C(=O)N[C@H](CCC(=O)O)C(=O)N[C@H](CCC(=O)O)C(=O)N[C@H](CCC(=O)O)C(=O)N[C@H](CCC(=O)O)C(=O)NCCOCC(=O)N[C@H]1CSSC[C@@H](C(=O)N[C@@H](CC(N)=O)C(=O)N[C@@H](CC(C)C)C(=O)N[C@@H](Cc2ccccc2)C(=O)N[C@H](C(=O)N[C@@H](CC(C)C)C(=O)N[C@@H](CCCCN)C(=O)N[C@@H](CC(=O)O)C(=O)NCCOCC(=O)N[C@H](CCCNC(=N)N)C(=O)N[C@H](CCCNC(=N)N)C(=O)N[C@H](CCCNC(=N)N)C(=O)N[C@H](CCCNC(=N)N)C(=O)N[C@H](CCCNC(=N)N)C(=O)N[C@H](CCCNC(=N)N)C(=O)N[C@H](CCCNC(=N)N)C(=O)N[C@H](CCCNC(=N)N)C(=O)N[C@H](CCCNC(=N)N)C(=O)N[C@H](CCNC(=O)CN2CCN(CC(=O)O)CCN(CC(=O)O)CCN(CC(=O)O)CC2)C(N)=O)C(C)C)NC(=O)[C@H](CO)NC(=O)[C@H](CCC(=O)O)NC(=O)[C@H](CCCCN)NC(=O)[C@@H]2CCCN2C1=O` [ACPP-A, Ac-y-e9-X-C*PKESC*NLFVLKD-X-r9-dab(DOTA)-NH2] was tested, and the “fraction of the peptide cleaved by MT1-MMP” value was less than 5%.
